Experimental data published in patent publication EP0437336B1, “Biophosphoryl hydrazines and their use as pesticides” (priority 1990, dated 1991).
≈ marks a conversion by molar mass, not a printed value. Where two headings read alike, the source gives them in different places.

Experiments:
[1] = system: southern corn rootworm, Diabrotica undecimpunctata howardi; experiment: Biological Method A: Corn Rootworm Screening Test (treated non-aggressive soil); settings: soil concentration giving 90% mortality, 10 days at 27°C
Southern Armyworm [2] = experiment: Biological Method D: Foliar Insecticidal Activity Test, Southern Armyworm test; type: in vivo, Spodoptera eridania; design: key: I = inactive at concentration listed
Experimental: (§1) Biological Method D: Foliar Insecticidal Activity Test
(§2) In evaluating the foliar insecticidal activity of the compounds of this invention against insects and mites, the following test procedures were employed.
(§3) Not all compounds were tested at each of the several concentrations stated above. Test concentrations of a compound were selected as those most likely to differentiate dose response of a particular compound toward a particular test insect.
(§4) Initial evaluations were made on one or more of the following pests:
(§5) For the Mexican Bean Beetle and Southern armyworm tests, individual lima bean (Phaseolus limeniss var. Woods' Prolific) leaves were placed on moistened pieces of filter paper in Petri dishes. The leaves were then sprayed with the test solution using a rotating turntable and allowed to dry. The dishes were then infested with 10 third instar larvae of either the Mexican Been Beetle or the Southern Armyworm. The dishes were then covered. Percent mortality was determined for each species and spray concentration at 48 and 96 hours after treatment.
(§6) The mortalities obtained in this manner were plotted on logarithmic probability paper.
(§7) The rotating turntable consists of a fixed, continuously operating spray nozzle under which targets are rotated at a fixed speed and distance. If the target is a Petri dish (such as for the bean beetle, armyworm, mite, or aphid tests), the distance from the nozzle is 38.1 cm (15 inches). If the target is a Mason jar (such as for the boll weevil test), the distance from the nozzle is 17.8 cm (7 inches). The nozzle is located 8 inches from the rotating shaft. The targets on individual platforms revolve around the shaft at 1 revolution per 20 seconds but only a brief portion of this time occurs in the spray path. Targets pass only once under the nozzle and then are removed to drying hoods.
(§8) The nozzle used is a 1/4 JCO Spraying Systems (Wheaton, Illinois) air atomizing nozzle equipped with a No. 2850 fluid cap and a No. 70 air cap. At the 68.95 x 10³ Pa gauge (10 psig) air pressure used and with liquid siphon feed, 1.89 ℓ/hr [0.5 GPH (gallons per hour)] are delivered in a round spray pattern with a 21 degree spray angle. Targets are misted with spray droplets to the point that the droplets coalesce to form a uniform thin film insufficient to drown test organisms.

Two-Spotted Spider Mite = experiment: Biological Method D: Foliar Insecticidal Activity Test, mite test; type: in vivo, Tetranychus urticae; design: key to LC50 TSM: I = inactive at concentration listed; settings: for LC50: Tetranychus urticae
Mexican Bean Beetle = experiment: Biological Method D: Foliar Insecticidal Activity Test, Mexican Bean Beetle test; type: in vivo, Epilachna varivestis; settings: Epilachna varivestis
[3] = system: southern corn rootworm, Diabrotica undecimpunctata howardi; settings: for foliar systemic nonagressive Method B crw % control at 0.56 kg/ha (0.5 lb/acre): percent control relative to infested check, from root damage ratings, 14 days post-spraying; for pest or weed control at 560 g/ha: Diabrotica undecimpunctata, in Zea mays, foliar, 336 h, read-out: foliar systemic nonagressive Method B crw % control at 0.56 kg/ha (0.5 lb/acre)
Boll Weevil [4] = experiment: Biological Method D: Foliar Insecticidal Activity Test, boll weevil test; type: in vivo, Anthonomous grandis; design: key: I = inactive at concentration listed
Experimental: as §1, §2, §3, §4
For the boll weevil test, 10 adult weevils were placed in a 0.24 ℓ (0.5 pint) glass Mason jar containing a small cube of apple. The weevils were confined to the jar by fiberglass screen mesh secured by a screw-type rim cap. The jars were then sprayed with the test solution using a rotating turntable; directing the spray through the mesh into the jar. The percentage killed was determined after forty-eight and ninety six hours.
as §6, §7, §8

Green Peach Aphid [5] = experiment: Biological Method D: Foliar Insecticidal Activity Test, aphid test; type: in vivo, Myzus persicae; design: key: I = inactive at concentration listed
Experimental: as §1, §2, §3, §4
(§9) For the aphid test, infested broccoli (Brassica oleracea italica var. DiCicco) leaves containing about 50 aphids were placed in a Petri dish lid on a moistened piece of cotton. The leaves were then sprayed to thorough wetness with the test solution using a rotating turntable, held for twenty-four hours and then the percentage killed was determined.
as §6, §7, §8

Southern Armyworm [6] = experiment: Biological Method D: Foliar Insecticidal Activity Test, Southern Armyworm test; type: in vivo, Spodoptera eridania; settings: foliar spray; for AW 48 hrs LC50: 48 hours after treatment; for AW 96 hrs LC50: 96 hours after treatment
Experimental: as §1, §2, §3, §4, §5, §6, §7, §8

Green Peach Aphid [7] = experiment: Biological Method D: Foliar Insecticidal Activity Test, aphid test; type: in vivo, Myzus persicae; settings: foliar spray; kill after twenty-four hours
Experimental: as §1, §2, §3, §4, §9, §6, §7, §8

[8] = system: southern corn rootworm, Diabrotica undecimpunctata howardi; settings: at-planting soil application
Boll Weevil [9] = experiment: Biological Method D: Foliar Insecticidal Activity Test, boll weevil test; type: in vivo, Anthonomous grandis; settings: spray into jar
[10] = Method D foliar test, Two-Spotted Spider Mite, read-out: LC50 TSM
[11] = Method D foliar test, Mexican Bean Beetle, 48 hrs, read-out: LC50 BB 48 hrs.
[12] = Method D foliar test, Mexican Bean Beetle, 96 hrs, read-out: LC50 BB 96 hrs
[13] = Method D foliar test, Two-Spotted Spider Mite
[14] = foliar spray, 48 hours after treatment, read-out: BB 48 hrs. LC50
[15] = foliar spray, 96 hours after treatment, read-out: BB 96 hrs LC50
[16] = foliar spray, kill after twenty-four hours

SMILES	primary nonagressive Method A crw LC90 [1]	LC50 AW 48 hrs (Southern Armyworm [2])	LC50 AW 96 hrs (Southern Armyworm [2])	LC50 (Two-Spotted Spider Mite; [10])	LC50 (Mexican Bean Beetle; [11])	foliar systemic nonagressive Method B crw % control at 0.56 kg/ha (0.5 lb/acre) [3]	LC50 BW 48 hrs (Boll Weevil [4])	LC50 BW 96 hrs (Boll Weevil [4])	LC50 GPA (Green Peach Aphid [5])	LC50 (Mexican Bean Beetle; [12])	LC50 TSM (Two-Spotted Spider Mite; [13])	other results
CCOP(=S)(NNP(=S)(OCC)OC(C)C)OCC (stereo not drawn) [Compound 5]	<0.1 ppm	I	I	150 µg/mL (≈ 428 µM)	740 µg/mL (≈ 2110 µM)	69%	I	I	I			
CCCOP(=S)(NNP(=S)(OCC)OCC)OCC (stereo not drawn) [Compound 6]	<0.1 ppm	I	I	150 µg/mL (≈ 428 µM)	420 µg/mL (≈ 1200 µM)	3%	I	I	I			
CCCCOP(=S)(NNP(=S)(OCC)OCC)OCC (stereo not drawn) [Compound 7]	0.25 ppm	I	I	150 µg/mL (≈ 412 µM)		38%	I	I	I			
C=CCOP(=S)(NNP(=S)(OCC)OCC)OCC (stereo not drawn) [Compound 10]	0.79 ppm	I	I	510 µg/mL (≈ 1460 µM)		34%	I	I	I	78 µg/mL (≈ 224 µM)		
C#CCOP(=S)(NNP(=S)(OCC)OCC)OCC (stereo not drawn) [Compound 12]	0.56 ppm	I	I		150 µg/mL (≈ 433 µM)	30%	I	I	I	62 µg/mL (≈ 179 µM)	I	
CCCOP(=S)(NNP(=S)(OCC)OCC)OCCC [Compound 13, reference compound]	<0.1 ppm	I	I		150 µg/mL (≈ 412 µM)	46%	I	I	I	52 µg/mL (≈ 143 µM)	I	
CCOP(=S)(NNP(=S)(OCC)OC(C)C(F)(F)F)OCC (stereo not drawn) [Compound 15]	<0.1 ppm	I	I		150 µg/mL (≈ 371 µM)		I	I	I	62 µg/mL (≈ 153 µM)	I	pest or weed control at 560 g/ha [3]: 54%
CCOP(=S)(NNP(=S)(OCC)O[C@H]1C[C@@H](C)CC[C@@H]1C(C)C)OCC (stereo partly drawn) [Compound 35]	0.77 ppm	I	I		250 µg/mL (≈ 560 µM)		I	I	I	52 µg/mL (≈ 116 µM)	I	pest or weed control at 560 g/ha [3]: 38%
CCOP(=S)(NNP(=S)(OCC)OC(C)(C(F)(F)F)C(F)(F)F)OCC (stereo not drawn) [Compound 39]	0.71 ppm	I	I	150 µg/mL (≈ 318 µM)	31 µg/mL (≈ 65.6 µM)		I	I	I	150 µg/mL (≈ 318 µM)		pest or weed control at 560 g/ha [3]: 46%
CCOP(=S)(NNP(=S)(OCC)OC(C)CC)OC(C)CC (stereo not drawn) [Compound 65, N-(O-ethyl O-secbutylthiophosphoryl) N′-(O-ethyl O-secbutylthiophosphoryl) hydrazine, reference compound]	0.09 ppm											AW 48 hrs LC50 (Southern Armyworm [6]): I; AW 96 hrs LC50 (Southern Armyworm [6]): I; GPA LC50 (Green Peach Aphid [7]): I; LC50 (Two-Spotted Spider Mite; 24 h, foliar spray, kill after twenty-four hours, read-out: TSM LC50): 245 µg/mL (≈ 624 µM); secondary aggressive Method C crw LC50 ([8]; rated 17 days post-infestation): 0.44 kg/ha; secondary aggressive Method C crw LC50 ([8]; value in brackets): 0.39 lb/acre; LC50 (Mexican Bean Beetle; [14]): 360 µg/mL (≈ 917 µM); LC50 (Mexican Bean Beetle; [15]): 62 µg/mL (≈ 158 µM); BW 48 hrs LC50 (Boll Weevil [9]): I; BW 96 hrs LC50 (Boll Weevil [9]): I
CCOP(=S)(NNP(=S)(OCC)OCC(C)C)OCC(C)C (stereo not drawn) [Compound 66, reference compound]	0.09 ppm											AW 48 hrs LC50 (Southern Armyworm [6]): I; AW 96 hrs LC50 (Southern Armyworm [6]): I; GPA LC50 (Green Peach Aphid [7]): I; TSM LC50 (Two-Spotted Spider Mite; [16]): I; secondary aggressive Method C crw LC50 ([8]; rated 17 days post-infestation): ~1.91 kg/ha; secondary aggressive Method C crw LC50 ([8]; value in brackets): ~1.7 lb/acre; LC50 (Mexican Bean Beetle; [15]): 150 µg/mL (≈ 382 µM); BW 48 hrs LC50 (Boll Weevil [9]): I; BW 96 hrs LC50 (Boll Weevil [9]): I
CCCCNP(=S)(NNP(=S)(OCC)OCC)OCC (stereo not drawn) [Compound 74]	1.1 ppm											AW 48 hrs LC50 (Southern Armyworm [6]): I; AW 96 hrs LC50 (Southern Armyworm [6]): I; GPA LC50 (Green Peach Aphid [7]): I; TSM LC50 (Two-Spotted Spider Mite; [16]): I; secondary aggressive Method C crw LC50 ([8]; rated 17 days post-infestation): 1.03 kg/ha; secondary aggressive Method C crw LC50 ([8]; value in brackets): 0.92 lb/acre; LC50 (Mexican Bean Beetle; [14]): 740 µg/mL (≈ 2040 µM); LC50 (Mexican Bean Beetle; [15]): 380 µg/mL (≈ 1050 µM); BW 48 hrs LC50 (Boll Weevil [9]): I; BW 96 hrs LC50 (Boll Weevil [9]): I
